Where only a bound is given, the exact number is not on record here.

The nature of data set [1]: Stability of aqueous solution of Compound (A) (t95). It is filed as physicochemical. As to conditions: 37° C. How it is done:
Certain epothilones including the preferred epothilone, Compound (A), are unstable in acidic aqueous environments and decompose, presumably by an acid catalyzed hydrolytic opening of the epoxide ring. For example, the time for 5% drug loss (t95) at 37° C. for an aqueous solution of Compound (A) is approximately 38 minutes at pH 7.4 but only about 0.2 minutes at pH 2.5. Thus, when epothilones of Formula (Ia) or (Ib), or a pharmaceutically acceptable salt, solvate, clathrate, hydrate, or prodrug thereof, are orally administered they decompose in the stomach of the patient such that they are either minimally absorbed or not absorbed by the gastrointestinal tract.

The nature of data set [2]: Pharmacokinetics in mice (IV and oral). It is filed as in vivo, female CDF. The procedure:
(§1) Plasma samples from pharmacokinetic/pharmacodynamic studies were analyzed for the concentration of Compound (A) using an LC/MS/MS (liquid chromatography/mass spectrometry/mass spectrometry) assay with a standard curve range of 5 to 20,000 ng/mL (10 to 40,000 nM) for studies in mice and 2 to 1000 ng/mL (4 to 2000 nM) for studies in rats and dogs. In pharmacodynamic studies, concentrations of Compound (A) were determined using the LC/MS/MS assay with a standard curve range of 5 to 20,000 ng/mL (10 to 40,000 nM) in mouse plasma. The LC/MS/MS assay was also used to determine the concentrations of Compound (B), a degradation product of Compound (A) formed in the stock/dosing solution or in vivo, in rat and dog plasma. The structure of Compound (B) is: [drawing 9]
Compound (A) was administered intravenously (5 mg/kg) and orally (48 mg/kg) to female CDF, mice. For the IV route, Compound (A) was dissolved in 20% ethanol solution and was given as a bolus dose. For the oral route, solutions of Compound (A) were prepared as a 3:7 mixture of ethanol:phosphate buffered saline (0.25 M, pH 8.0) and administered by gavage. Plasma samples for determinating concentrations of Compound (A) were taken from 3 separate mice at 5, 15, and 45 min, and 2, 4, and 6 h after the IV dose, and at 15 and 45 min, and 2, 4, and 6 h after the oral dose.

In data set [3] the test system is mouse liver microsomes. The data set is described as follows: Oxidative metabolism in mouse liver microsomes. It is filed as in vitro ADME. Particulars: 40 :M, NADPH. The procedure: (§2) Upon incubation of Compound (A) (40 :M) with mouse, rat, dog, and human liver microsomes fortified with nicotinamide adenine dinucleotide phosphate (NADPH), the rate of oxidative metabolism of Compound (A) was 2.1, 0.7, 1.2 and 1.3 nmol/min/mg protein, respectively. Moreover, the metabolite distribution was similar among all species (metabolite masses included several […] and M−2 compounds). Qualitatively, there appeared to be similar production of metabolites of Compound (A) after incubation with rat or human hepatocytes compared to microsomal incubations. Products similar to those arising from the chemical degradation of Compound (A) appeared to be the major products in the hepatocyte incubations.

The nature of data set [4]: Pharmacokinetics in dogs, 10 min IV infusion. The format is in vivo, male beagle dogs. How it is done: as §1
Male beagle dogs (n=3) were administered a 10 min IV infusion of 0.5 mg/kg of Compound (A) (given as a 10% ethanol solution). Plasma samples were taken over a period of 32 h after dose to determine the plasma concentrations of Compound (A). […] The T-HALF was estimated to be approximately 24 h.

Data set [5] in a line: Excretion in bile duct cannulated rats. It is filed as in vivo, Sprague Dawley rats. As to conditions: intraarterial 10 mg/kg or oral 20 mg/kg, 9 h. The procedure: In another study, bile duct cannulated Sprague Dawley rats (n=2 per group) received a single intraterial (10 mg/kg) or oral (20 mg/kg) dose of Compound (A), and bile, urine, and plasma samples were collected over a period of 9 h after dose. There was negligible excretion of intact Compound (A) in the bile (C 1% of the dose). There was some detectable amount of Compound (A) in the urine, but actual concentrations were not quantified due to lack of stability data for Compound (A) in the urine. Several drug-related compounds in the urine and plasma were tentatively identified by LC/MS and included an isomer (M+0), and a hydrolysis product (M+18). In addition, a metabolite (M−2) was detected in the plasma.

For data set [6], the system named is dog liver microsomes. Kind of data set: Oxidative metabolism in dog liver microsomes. It is filed as in vitro ADME. As to conditions: 40 :M, NADPH. The procedure: as §2
Data set [7] can be described thus: Single dose oral toxicity study in dogs. It is filed as in vivo. Particulars: oral solution 0.4 mL/kg. How it is done:
The mean (SD) [n=3] […] Although the oral formulation for both studies was identical, the total volume of the oral solution administered in the current study was about 1.3 mL/kg while that in the toxicology study was 0.4 mL/kg. […] Compound (A) is an acid labile drug, thus, the higher exposure after oral solution in the current study compared to the toxicology study is likely related to better protection from gastric acid degradation.

In data set [8] the test system is Caco-2 cell culture system. The data set is described as follows: Caco-2 cell permeability. How it is done: The Pc of some model compounds, for which the bioavailability in humans is known, was also determined in the same experiment.
Data set [9] concerns human liver microsomes. Kind of data set: Oxidative metabolism in human liver microsomes. The format is in vitro ADME. As to conditions: 40 :M, NADPH. How it is done: as §2
The target in data set [10] is CYP2C9 (Homo sapiens, UniProt P11712). The data set is described as follows: Inhibition of recombinant human CYP2C9 (deethylation of 3-cyano-7-ethoxycoumarin). The format is in vitro ADME. Particulars: recombinant human CYP isoform. How it is done: (§3) The ability of Compound (A) to inhibit the major human cytochrome P450s (CYPs) responsible for the metabolism of drugs was evaluated in vitro using recombinant human CYP isoforms. IC50 values for inhibition of deethylation of 3-cyano-7-ethoxycoumarin (CYP1A2, CYP2C9, CYP2C19, and CYP2D6) and for inhibition of dealkylation of benzoyl-resorufin (CYP3A4) were determined.

Data set [11] deals with rat liver microsomes. The data set is described as follows: Oxidative metabolism in rat liver microsomes. The format is in vitro ADME. Particulars: 40 :M, NADPH. How it is done: as §2
Data set [12] has as its target CYP2D6 (Homo sapiens, UniProt P10635). The data set is described as follows: Inhibition of recombinant human CYP2D6 (deethylation of 3-cyano-7-ethoxycoumarin). It is filed as in vitro ADME. Particulars: recombinant human CYP isoform. The procedure:
as §3

CYP2C9, sequence (P11712 whole entry, canonical isoform): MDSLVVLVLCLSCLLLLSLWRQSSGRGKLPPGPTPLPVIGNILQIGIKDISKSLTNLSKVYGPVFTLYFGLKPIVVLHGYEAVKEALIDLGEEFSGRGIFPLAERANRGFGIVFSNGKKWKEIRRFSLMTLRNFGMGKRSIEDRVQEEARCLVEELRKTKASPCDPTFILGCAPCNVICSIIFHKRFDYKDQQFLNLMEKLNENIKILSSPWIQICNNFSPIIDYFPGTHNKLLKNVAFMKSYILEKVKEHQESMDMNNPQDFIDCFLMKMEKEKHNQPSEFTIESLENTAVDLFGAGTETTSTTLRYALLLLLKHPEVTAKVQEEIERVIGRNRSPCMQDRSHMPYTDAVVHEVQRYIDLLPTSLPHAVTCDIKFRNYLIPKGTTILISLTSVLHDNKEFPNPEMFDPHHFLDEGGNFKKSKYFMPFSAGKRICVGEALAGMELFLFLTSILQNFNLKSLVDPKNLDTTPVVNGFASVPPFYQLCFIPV
CYP2D6, sequence (P10635 whole entry, canonical isoform): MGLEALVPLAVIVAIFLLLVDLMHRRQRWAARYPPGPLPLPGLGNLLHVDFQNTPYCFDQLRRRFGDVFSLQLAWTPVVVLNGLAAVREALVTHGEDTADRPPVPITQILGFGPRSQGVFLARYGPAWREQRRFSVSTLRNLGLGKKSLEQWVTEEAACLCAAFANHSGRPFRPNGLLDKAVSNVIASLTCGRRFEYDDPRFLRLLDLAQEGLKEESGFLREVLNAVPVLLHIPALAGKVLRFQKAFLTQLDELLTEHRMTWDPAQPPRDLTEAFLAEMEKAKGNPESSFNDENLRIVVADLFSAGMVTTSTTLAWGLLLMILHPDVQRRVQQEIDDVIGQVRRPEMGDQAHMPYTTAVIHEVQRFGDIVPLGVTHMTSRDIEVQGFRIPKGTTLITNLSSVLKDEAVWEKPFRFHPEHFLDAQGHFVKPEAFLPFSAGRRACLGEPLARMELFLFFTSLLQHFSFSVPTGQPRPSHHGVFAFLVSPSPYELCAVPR

On to `C/C(=C\c1csc(C)n1)[C@@H]1C[C@@H]2O[C@]2(C)CCC[C@H](C)[C@H](O)[C@@H](C)C(=O)C(C)(C)[C@@H](O)CC(=O)N1` (relative stereo) [Compound (A), [1S-[1R*,3R*(E),7R*,10S*,11R*,12R*,16S*]]-7,11-dihydroxy 8,8,10,12,16-pentamethyl-3-[1-methyl-2-(2-methyl-4-thiazolyl)ethenyl-4-aza-17-oxobicyclo[14.1.0]heptadecane-5,9-dione], for which the figures for the “time for 5% drug loss (t95)” value in data set [1] (pH 2.5) and in data set [1] (pH 7.4) were “about 0.2 minutes” and “approximately 38 minutes”, respectively. In [2] (IV 5 mg/kg), the “steady-state volume of distribution (VSS)” value is given as 6.3 L/kg. For the same compound, in data set [2] (IV 5 mg/kg), the “terminal elimination half-life (T-HALF)” value was “approximately 3 h”. Moreover, the “CLT as percent of liver blood flow” value in data set [2] (IV 5 mg/kg, liver blood flow 90 mL/min/kg) was 76%; in [4] (IV 0.5 mg/kg, liver blood flow 30.9 mL/min/kg) it was “about 56%”. Moreover, the “systemic clearance or total body clearance (CLT)” value in data set [2] (IV bolus 5 mg/kg) was 68 mL/min/kg. This compound also displayed an absolute oral bioavailability in data set [2] (oral 48 mg/kg vs IV 5 mg/kg) of 31%. The “peak plasma concentration (CMAX)” value in data set [2] (oral 48 mg/kg, ethanol:phosphate buffered saline 3:7) came out at 5983 ng/mL. Moreover, the “rate of oxidative metabolism” value in data set [3] is on record as 2.1 nmol/min/mg protein; in data set [6] it was 1.2 nmol/min/mg protein; in [9], 1.3 nmol/min/mg protein; in data set [11] it was 0.7 nmol/min/mg protein. Further, the “CLT (mean)” value in [4] (10 min IV infusion 0.5 mg/kg) was determined as 17.3 mL/min/kg. Besides, the T-HALF result in data set [4] (IV 0.5 mg/kg) is given as “approximately 24 h”. Also, the “mean VSS” value in [4] (IV 0.5 mg/kg) is on record as 25.2 L/kg. For the same compound, the “AUC, mean (SD)” value in [4] (preliminary IV pharmacokinetic study, 0.5 mg/kg) is reported as 483 (34) h.ng/mL. In addition, in data set [5], the “excretion of intact Compound (A) in the bile” value is on record as < 1 % of the dose. For the same compound, in data set [7], the “dose-normalized mean AUC” value is 257 ng·h/mL. Moreover, the “permeability coefficient (Pc)” value in [8] (Caco-2, 10 pM (Ca 5 pg/mL)) turned out to be 9.4 ×10⁻⁶ cm/s; in data set [8] (Caco-2, 30 pM (Ca 15 pg/mL)), 10.5 ×10⁻⁶ cm/s; in data set [8] (Caco-2, 100 pM (Ca 50 pg/mL)), 12.8 ×10⁻⁶ cm/s. Also, the “inhibition of CYP2C9” value in [10] is listed as “did not inhibit”. Moreover, the “inhibition of CYP2D6” value in data set [12] was “did not inhibit”.

(Values after patent publication USRE40387E1, “Pharmaceutical compositions, dosage forms and methods for oral administration of epothilones” (Bristol-Myers Squibb Company, priority 2001, dated 2008).)
